Test results: ChEMBL document CHEMBL3638593, “Macrocycles as factor XIa inhibitors” (2015)

Target: Coagulation factor XI (Homo sapiens, UniProt P03951)
Assay: In Vitro Assay: The effectiveness of compounds of the present invention as inhibitors of the coagulation Factors XIa, VIIa, IXa, Xa, XIIa, plasma kallikrein or thrombin, can be determined using a relevant purified serine protease, respectively, and an appropriate synthetic substrate. The rate of hydrolysis of the chromogenic or fluorogenic substrate by the relevant serine protease was measured both in the absence and presence of compounds of the present invention. […] A decrease in the rate of absorbance or fluorescence change in the presence of inhibitor is indicative of enzyme inhibition. Such methods are known to one skilled in the art.

Sequence of Coagulation factor XI (P03951 19-387 limits assumed): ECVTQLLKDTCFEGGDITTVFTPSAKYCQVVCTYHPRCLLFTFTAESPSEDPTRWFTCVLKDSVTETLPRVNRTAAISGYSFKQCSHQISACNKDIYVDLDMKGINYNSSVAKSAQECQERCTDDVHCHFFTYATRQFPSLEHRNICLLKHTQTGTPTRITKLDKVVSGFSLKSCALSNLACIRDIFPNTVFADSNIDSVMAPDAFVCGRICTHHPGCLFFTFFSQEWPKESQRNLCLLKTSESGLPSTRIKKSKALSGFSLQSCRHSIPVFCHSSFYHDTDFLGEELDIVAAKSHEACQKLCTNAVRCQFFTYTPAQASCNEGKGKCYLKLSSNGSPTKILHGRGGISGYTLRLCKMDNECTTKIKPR
Sequence of Coagulation factor XI (P03951 388-625 limits assumed): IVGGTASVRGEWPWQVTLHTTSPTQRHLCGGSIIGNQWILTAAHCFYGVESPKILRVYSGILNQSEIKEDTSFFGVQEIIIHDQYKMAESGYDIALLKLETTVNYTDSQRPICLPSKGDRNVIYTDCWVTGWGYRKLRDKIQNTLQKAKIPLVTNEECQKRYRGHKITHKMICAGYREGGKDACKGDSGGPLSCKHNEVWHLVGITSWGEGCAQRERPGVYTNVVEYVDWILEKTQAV

How did the Ki turn out when O=C(/C=C/c1cc(Cl)ccc1-n1cnnn1)N[C@H]1CCCCC(=O)Nc2cc3[nH]ncc3cc2-c2c[nH]c1n2 was run?
Its Ki is 183 nM.
